Assay results published in US9845297B2, “Antimicrobial compounds and methods of making and using the same” (Melinta Therapeutics, Inc., priority 2009, dated 2017).

tested on: Eschericia coli strain ATCC25922; assay: standard microdilution assay to determine minimum inhibitory concentrations (MICs); type: cell-based; conditions: Escherichia coli, ATCC25922, Eschericia coli strain ATCC25922, standard microdilution assay; read-out: E. coli ATCC25922 MIC
Procedure: Minimum inhibitory concentrations (MICs) are determined by the microdilution method, typically in a final volume of 100 microliters, according to protocols outlined by The Clinical and Laboratory Standards Institute [CLSI; formerly the National Committee for Clinical Laboratory Standards (NCCLS)]. See CLSI: Methods for dilution antimicrobial susceptibility tests for bacteria that grow aerobically; approved standard-fifth edition. Wayne, Pa.: NCCLS; 2000. The assays can be also be performed in microtiter trays according to conventional methodologies as published by the CLSI. See CLSI. Methods for Dilution Antimicrobial Susceptibility Tests for Bacteria That Grow Aerobically; Approved Standard-Seventh Edition. CLSI Document M7-A7 [ISBN 1-56238-587-9] CLSI, 940 West Valley Road, Suite 1400, Wayne Pa. 19087-1898 USA, 2006).
The compounds of the present invention were tested for antimicrobial activity. The compounds were run against Eschericia coli strain ATCC25922 using a standard microdilution assay to determine minimum inhibitory concentrations (MICs). […] A “N/A” means that data is unavailable. It will be recognized by one skilled in the art that the compounds can be assessed against other bacterial organisms and that the presentation of data for activity against Eschericia coli is illustrative and in no way is intended to limit the scope of the present invention. The compounds of the present invention can be assayed against a range of other microorganisms depending upon the performance activity desired to be gathered. Furthermore, the “+”, “−”, and “N/A” representation and the selection of a cutoff value of 16 micrograms/ml is also illustrative and in no way is intended to limit the scope of the present invention.

MIC [µg/mL] | Compound
< 16 | CN1CCN(c2ccc(NC(=O)Nc3ccn(CCCC(CCCNC(=N)N)NCCCN)c(=O)n3)cc2)CC1 (centres unmarked) [Compound 185]
> 16 | N=C(N)NCCCC(CCCn1ccc(NC(=O)Nc2ccc(N3CCCCC3)cc2)nc1=O)NCCCN (centres unmarked) [Compound 186]
> 16 | N=C(N)NCCCC(CCCn1ccc(NC(=O)c2ccc(N3CCOCC3)nc2)nc1=O)NCCCN (centres unmarked) [Compound 187]
> 16 | CN(C)c1ccc(NC(=O)Nc2nc(=O)c(-c3ccc(CN(CCCN)CCCN)cc3)c[nH]2)cc1 [Compound 188]
> 16 | N=C(N)NCCCC(CCCn1ccc(NC(=O)c2ccc(N3CCOCC3)cc2)nc1=O)NCCCN (centres unmarked) [Compound 189]
< 16 | CN1CCN(c2ccc(C(=O)Nc3ccn(CCC[C@H](CCCNC(=N)N)NCCCN)c(=O)n3)cc2)CC1 [Compound 190]
< 16 | CN1CCN(c2ccc(NC(=O)Nc3nc(=O)c(-c4ccc(CN(CCCN)CCCN)cc4)c[nH]3)cc2)CC1 [Compound 191]
< 16 | CC(N)(CO)C(=O)Nc1ccc(C(=O)Nc2ccn(CCC[C@H](CCCNC(=N)N)NCCCN)c(=O)n2)cc1 (some centres unmarked) [Compound 199]
> 16 | NCCCN(CCCN)Cc1ccc(-c2c[nH]c(NC(=O)Cc3ccc(C(F)(F)F)cc3)nc2=O)cc1 [Compound 205]
< 16 | CN(C)CCN1CCN(c2ccc(NC(=O)Nc3ccn(CCCC(CCCNC(=N)N)NCCCN)c(=O)n3)cc2)CC1 (centres unmarked) [Compound 208]
< 16 | CN1CCN(C2CCN(c3ccc(NC(=O)Nc4nc(=O)c(-c5ccc(CN(CCCN)CCCN)cc5)c[nH]4)cc3)CC2)CC1 [Compound 209]
< 16 | CN(C)CCN1CCN(c2ccc(NC(=O)Nc3nc(=O)c(-c4ccc(CN(CCCN)CCCN)cc4)c[nH]3)cc2)CC1 [Compound 210]
> 16 | CN(C)C(=O)CN1CCN(c2ccc(NC(=O)Nc3nc(=O)c(-c4ccc(CN(CCCN)CCCN)cc4)c[nH]3)cc2)CC1 [Compound 211]
> 16 | CN(C)CCN1CCN(c2ccc(C(=O)Nc3ccn(CCC[C@H](CCCNC(=N)N)NCCCN)c(=O)n3)cc2)CC1 [Compound 213]
> 16 | CN(C)C(=O)CN1CCN(c2ccc(NC(=O)Nc3ccn(CCC[C@H](CCCNC(=N)N)NCCCN)c(=O)n3)cc2)CC1 [Compound 214]
< 16 | CN1CCN(c2ccc(NC(=O)Nc3ccn(-c4ccc(CN(CCCN)CCCNC(=N)N)cc4)c(=O)n3)cc2)CC1 [Compound 222]
> 16 | N=C(N)NCCCN(CCCN)Cc1ccc(-n2ccc(NC(=O)Nc3ccc(F)c(F)c3)nc2=O)cc1 [Compound 223]
> 16 | NCc1ccc(-c2c[nH]c(NC(=O)Nc3cc(F)c(F)cc3F)nc2=O)cc1 [Compound 238]
> 16 | NCCCNCc1ccc(-c2c[nH]c(NC(=O)Nc3cc(F)c(F)cc3F)nc2=O)cc1 [Compound 239]
< 16 | NCCCNCc1ccc(-c2c[nH]c(NC(=O)Nc3ccccc3OC(F)(F)F)nc2=O)cc1Cl [Compound 242]
< 16 | NCCCNCc1ccc(-c2c[nH]c(NC(=O)Nc3cccc(Cl)c3Cl)nc2=O)cc1Cl [Compound 243]
> 16 | NCCCNCc1ccc(-c2c[nH]c(NC(=O)Nc3ccc(OC(F)F)cc3)nc2=O)cc1Cl [Compound 244]

MIC [µg/mL] | Compound
< 16 | NCCCNCc1ccc(-c2c[nH]c(NC(=O)Nc3ccccc3OC(F)(F)F)nc2=O)cc1F [Compound 246]
> 16 | NCc1ccc(-c2c[nH]c(NC(=O)Nc3ccccc3OC(F)(F)F)nc2=O)cc1F [Compound 247]
> 16 | NCc1ccc(-c2c[nH]c(NC(=O)Nc3ccccc3OC(F)(F)F)nc2=O)cc1C(F)(F)F [Compound 248]
< 16 | NCCCNCc1ccc(-c2c[nH]c(NC(=O)Nc3ccc(OC(F)(F)F)cc3)nc2=O)cc1F [Compound 249]
< 16 | NC1CCN(Cc2ccc(-c3c[nH]c(NC(=O)Nc4ccccc4OC(F)(F)F)nc3=O)cc2)CC1 [Compound 251]
< 16 | NCCCNCc1ccc(-c2c[nH]c(NC(=O)Nc3cccc(Cl)c3Cl)nc2=O)cc1F [Compound 252]
> 16 | NCCCNCc1ccc(-c2c[nH]c(NC(=O)NCc3ccc(F)cc3)nc2=O)cc1F [Compound 255]
< 16 | NCCCN(CCCN)Cc1ccc(-c2c[nH]c(NC(=O)Nc3ccccc3OC(F)(F)F)nc2=O)cc1 [Compound 256]
> 16 | O=C(NCc1ccc(F)cc1)Nc1nc(=O)c(-c2ccc(CNCCCF)c(Cl)c2)c[nH]1 [Compound 257]
< 16 | NCCCNCc1ccc(-c2c[nH]c(NC(=O)Nc3cccc(Cl)c3Cl)nc2=O)cc1C(F)(F)F [Compound 259]
> 16 | CSCCNCc1ccc(-c2c[nH]c(NC(=O)Nc3ccccc3OC(F)(F)F)nc2=O)cc1Cl [Compound 260]
> 16 | NCCCNCc1ccc(-c2c[nH]c(NC(=O)Nc3cc(F)c(F)cc3F)nc2=O)cc1F [Compound 265]
< 16 | NCCCNCc1ccc(-c2c[nH]c(NC(=O)Nc3cc(F)c(F)cc3F)nc2=O)cc1C(F)(F)F [Compound 266]
> 16 | CSCCNCc1ccc(-c2c[nH]c(NC(=O)NCc3ccc(F)cc3)nc2=O)cc1Cl [Compound 267]
> 16 | CSCCNCc1ccc(-c2c[nH]c(NC(=O)Nc3cc(F)c(F)cc3F)nc2=O)cc1Cl [Compound 268]
< 16 | NCCCNCc1ccc(-c2c[nH]c(NC(=O)Nc3ccccc3OC(F)(F)F)nc2=O)cc1C(F)(F)F [Compound 269]
> 16 | NCCCNCc1ccc(-c2c[nH]c(NC(=O)Nc3ccc(OC(F)F)cc3)nc2=O)cc1C(F)(F)F [Compound 270]
> 16 | O=C(Nc1nc(=O)c(-c2ccc(CNCCCF)c(Cl)c2)c[nH]1)Nc1ccccc1OC(F)(F)F [Compound 271]
> 16 | NCCCNCc1ccc(-c2c[nH]c(NC(=O)Nc3ccc(C(F)(F)F)cc3)nc2=O)cc1C(F)(F)F [Compound 273]
> 16 | O=C(Nc1nc(=O)c(-c2ccc(CNCC3CC3)cc2)c[nH]1)Nc1ccccc1OC(F)(F)F [Compound 274]
> 16 | O=C(Nc1nc(=O)c(-c2ccc(CNCC3CC3)cc2)c[nH]1)Nc1cc(F)c(F)cc1F [Compound 275]
> 16 | O=C(Nc1nc(=O)c(-c2ccc(CNCCCO)cc2)c[nH]1)Nc1cc(F)c(F)cc1F [Compound 276]

MIC [µg/mL] | Compound
> 16 | O=C(Nc1nc(=O)c(-c2ccc(CNCCCO)cc2)c[nH]1)Nc1ccccc1OC(F)(F)F [Compound 277]
< 16 | NCCCNCc1ccc(-c2c[nH]c(NC(=O)Nc3ccccc3OC(F)(F)F)nc2=O)cc1 [Compound 278]
> 16 | CSCCCNCc1ccc(-c2c[nH]c(NC(=O)Nc3cc(F)c(F)cc3F)nc2=O)cc1 [Compound 281]
> 16 | CSCCCNCc1ccc(-c2c[nH]c(NC(=O)Nc3ccccc3OC(F)(F)F)nc2=O)cc1 [Compound 282]
> 16 | O=C(Nc1nc(=O)c(-c2ccc(CNCC(O)CO)cc2)c[nH]1)Nc1ccccc1OC(F)(F)F (centres unmarked) [Compound 283]
> 16 | O=C(Nc1nc(=O)c(-c2ccc(CNCC(O)CO)cc2)c[nH]1)Nc1cc(F)c(F)cc1F (centres unmarked) [Compound 284]
> 16 | NCCCNCc1c(F)cc(-c2c[nH]c(NC(=O)Nc3ccccc3OC(F)(F)F)nc2=O)cc1F [Compound 285]
> 16 | NCCCNCc1c(F)cc(-c2c[nH]c(NC(=O)Nc3cccc(Cl)c3Cl)nc2=O)cc1F [Compound 286]
> 16 | NCCCNCc1c(F)cc(-c2c[nH]c(NC(=O)Nc3cc(F)c(F)cc3F)nc2=O)cc1F [Compound 287]
> 16 | Cn1ccnc1CNCc1ccc(-c2c[nH]c(NC(=O)Nc3ccccc3OC(F)(F)F)nc2=O)cc1 [Compound 290]
> 16 | O=C(Nc1nc(=O)c(-c2ccc(CNCc3nccs3)cc2)c[nH]1)Nc1ccccc1OC(F)(F)F [Compound 291]
< 16 | NCCCN(CCCN)Cc1c(F)cc(-c2c[nH]c(NC(=O)Nc3ccccc3OC(F)(F)F)nc2=O)cc1F [Compound 294]
> 16 | NCCCN(CCCN)Cc1c(F)cc(-c2c[nH]c(NC(=O)Nc3cc(F)c(F)cc3F)nc2=O)cc1F [Compound 295]
< 16 | NCCCN(CCCN)Cc1c(F)cc(-c2c[nH]c(NC(=O)Nc3cccc(Cl)c3Cl)nc2=O)cc1F [Compound 297]
> 16 | Cn1ccnc1CNCc1ccc(-c2c[nH]c(NC(=O)Nc3cc(F)c(F)cc3F)nc2=O)cc1 [Compound 299]
> 16 | O=C(O)CCNCc1ccc(-c2c[nH]c(NC(=O)Nc3ccccc3OC(F)(F)F)nc2=O)cc1 [Compound 300]
> 16 | C[S+]([O-])CCCNCc1ccc(-c2c[nH]c(NC(=O)Nc3cc(F)c(F)cc3F)nc2=O)cc1 (centres unmarked) [Compound 302]
< 16 | CC(C)=CCN(CCCN)Cc1ccc(-c2c[nH]c(NC(=O)Nc3cc(F)c(F)cc3F)nc2=O)cc1 [Compound 303]
< 16 | CC(C)=CCN(CCCN)Cc1ccc(-c2c[nH]c(NC(=O)Nc3ccccc3OC(F)(F)F)nc2=O)cc1 [Compound 304]
> 16 | NCCCN(CCCOC(=O)Nc1ccccc1OC(F)(F)F)Cc1ccc(-c2c[nH]c(NC(=O)Nc3ccccc3OC(F)(F)F)nc2=O)cc1 [Compound 305]
< 16 | NCCCN(CCCN)Cc1ccc(-c2c[nH]c(NC(=O)Nc3cccc(Cl)c3Cl)nc2=O)cc1F [Compound 307]
